From patent publication US9255093B2, “Polycyclic HERG activators” (NOVARTIS AG, priority 2014, dated 2016) come the findings set out here.

SMILES strings stand for the structures.

In this series the target is hERG (human ether-a-go-go-related gene) potassium channel (Homo sapiens, UniProt Q12809). Nature of the series: QPatch automated patch-clamp hERG activator 4-concentration EC50 assay. The following applies: increase of hERG tail current amplitude at 7 second (TL7); 10 uM; hERG stably expressed in CHO cells. A general note: Patch clamp records ionic current or voltage across a cell membrane.
Sequence of hERG (human ether-a-go-go-related gene) potassium channel (Q12809 whole entry): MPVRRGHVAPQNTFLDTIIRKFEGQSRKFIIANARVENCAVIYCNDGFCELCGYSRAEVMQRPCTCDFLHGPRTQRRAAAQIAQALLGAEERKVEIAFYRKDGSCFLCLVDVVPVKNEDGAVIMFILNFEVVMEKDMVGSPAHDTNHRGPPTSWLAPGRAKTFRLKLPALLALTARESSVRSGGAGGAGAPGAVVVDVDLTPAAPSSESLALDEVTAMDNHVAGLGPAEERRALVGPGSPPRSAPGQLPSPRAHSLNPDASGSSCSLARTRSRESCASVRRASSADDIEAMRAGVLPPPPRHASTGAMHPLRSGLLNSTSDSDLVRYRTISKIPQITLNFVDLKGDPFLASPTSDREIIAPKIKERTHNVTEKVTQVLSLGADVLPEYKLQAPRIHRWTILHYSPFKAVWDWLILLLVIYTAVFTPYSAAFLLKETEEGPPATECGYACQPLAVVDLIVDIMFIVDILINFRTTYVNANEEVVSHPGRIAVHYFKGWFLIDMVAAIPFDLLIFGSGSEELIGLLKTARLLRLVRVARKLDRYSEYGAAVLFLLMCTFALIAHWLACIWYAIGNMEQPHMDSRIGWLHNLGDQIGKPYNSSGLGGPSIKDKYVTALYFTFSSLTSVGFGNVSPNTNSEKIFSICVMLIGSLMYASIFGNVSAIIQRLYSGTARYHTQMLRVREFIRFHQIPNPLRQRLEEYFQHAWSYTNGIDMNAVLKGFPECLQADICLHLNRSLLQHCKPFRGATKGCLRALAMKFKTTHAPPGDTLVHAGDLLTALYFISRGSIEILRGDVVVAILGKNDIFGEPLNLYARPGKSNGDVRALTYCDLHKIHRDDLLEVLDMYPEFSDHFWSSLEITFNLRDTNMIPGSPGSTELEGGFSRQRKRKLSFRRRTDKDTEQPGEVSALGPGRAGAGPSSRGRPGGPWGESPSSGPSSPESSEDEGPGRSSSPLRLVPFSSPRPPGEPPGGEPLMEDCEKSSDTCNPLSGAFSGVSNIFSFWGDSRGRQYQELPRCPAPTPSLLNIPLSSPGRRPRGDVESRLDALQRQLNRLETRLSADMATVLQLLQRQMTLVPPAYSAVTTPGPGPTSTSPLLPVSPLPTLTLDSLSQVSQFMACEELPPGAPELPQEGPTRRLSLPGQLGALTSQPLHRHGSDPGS
Source text: A patch-clamp assay on the QPatch© automated patch clamp system was employed to assesses whether compounds functionally enhance the cardiac delayed rectifier hERG (human ether-a-go-go-related gene) potassium channel. The assay measures electric the current passing through hERG channels that are heterologously expressed in a stable Chinese hamster ovary (CHO) cell line. Channels are opened by a hERG-specific voltage protocol and the compound effect is directly characterized by the activation of the hERG current. EC50 values are obtained from fitting 4-concentration dose response curves (1.1, 3.3, 10 & 30 uM) in triplicates at 4 different sections of the voltage protocol (steady state current amplitude at +10 mV, at +30 mV, peak tail current amplitude and tail current amplitude at 7 second).
For `CC(Nc1ccc(SC(F)(F)F)c(Cl)c1)c1ccc2oc(-c3nnn[nH]3)cc2c1` (stereo not drawn) [Example 74], the “% change@TL7@10 uM” value was determined as 124%. Regarding `FC(F)(F)Oc1cc(Cl)cc(NCc2ccc3oc(-c4nnn[nH]4)cc3c2)c1` [Example 75], the “% change@TL7@10 uM” value amounted to 123%. As to `CCCc1ccc(NCc2ccc3oc(-c4nnn[nH]4)cc3c2)cc1OC(F)(F)F` [Example 76], the “% change@TL7@10 uM” value is recorded as 120%. For `CC(Nc1ccc(OC(F)(F)F)c(Cl)c1)c1ccc2oc(-c3nnn[nH]3)cc2c1` (stereo not drawn) [Example 77], the “% change@TL7@10 uM” value worked out at 118%. The value for `CCc1ccc(NCc2ccc3oc(-c4nnn[nH]4)cc3c2)cc1C(F)(F)F` [Example 78] was 108%; that for `CCCc1ccc(NCc2ccc3oc(-c4nnn[nH]4)cc3c2)cc1F` [Example 79] was 101%. For `CCCc1ccc(NCc2ccc3oc(-c4nnn[nH]4)cc3c2)cc1C` [Example 80] the value was 83%; for `CCCc1ccc(NC(C)c2ccc3oc(-c4nnn[nH]4)cc3c2)cc1C(F)(F)F` (stereo not drawn) [Example 81], 74%; for `CCCc1ccc(NCc2ccc3oc(-c4nnn[nH]4)c(C)c3c2)cc1C(F)(F)F` [Example 82], 39%. With `CC(Nc1ccc2c(c1)OC(F)(F)O2)c1ccc2oc(-c3nnn[nH]3)cc2c1` (stereo not drawn) [Example 83], the “% change@TL7@10 uM” value is on record as 36%. For the compound `CCCc1ccc(NC(C)c2ccc3oc(-c4nnn[nH]4)cc3c2)cc1Cl` (stereo not drawn) [Example 84], the “% change@TL7@10 uM” value amounted to 29%. The value for `O=C(O)c1cc2ccc(CNc3cc(Br)c(Br)c(Br)c3)cc2o1` [Example 85] was 397%; that for `O=C(O)c1cc2ccc(CNc3cc(Cl)c(Cl)c(Cl)c3)cc2o1` [Example 86] was 381%; that for `O=C(O)c1cc2ccc(CNc3ccc(SC(F)(F)F)c(Cl)c3)cc2o1` [Example 87] was 326%. Turning to `O=C(O)c1cc2ccc(CNc3ccc(OC(F)(F)F)c(Cl)c3)cc2o1` [Example 88], the “% change@TL7@10 uM” value was 274%. The value for `O=C(O)c1cc2ccc(CNc3ccc4c(c3)OC(F)(F)O4)cc2o1` [Example 89] was 270%. The value for `O=C(O)c1cc2ccc(CNc3ccc(OC(F)(F)F)c(Br)c3)cc2o1` [Example 90] was 247%; that for `O=C(O)c1cc2ccc(CNc3ccc(SC(F)(F)F)c(C(F)(F)F)c3)cc2o1` [Example 91] was 226%; that for `O=C(O)c1cc2ccc(CNc3ccc(OC(F)(F)F)c(C(F)(F)F)c3)cc2o1` [Example 92] was 215%. For `CCCc1ccc(NCc2ccc3cc(C(=O)O)oc3c2)cc1Cl` [Example 93] the value was 212%; for `O=C(O)c1cc2ccc(CNc3ccc4c(c3)OC(F)(F)C(F)(F)O4)cc2o1` [Example 94], 194%; for `CCCc1ccc(NCc2ccc3cc(C(=O)O)oc3c2)cc1C(F)(F)F` [Example 95], 193%.

As for `CSc1ccc(NCc2ccc3cc(C(=O)O)oc3c2)cc1C(F)(F)F` [Example 96], the “% change@TL7@10 uM” value was determined as 185%. The value for `CSc1cccc(NCc2ccc3cc(C(=O)O)oc3c2)c1` [Example 97] was 159%; that for `O=C(O)c1cc2ccc(CNc3ccc(N4CCOCC4)c(Br)c3)cc2o1` [Example 98] was 158%.

For `O=C(O)c1cc2ccc(CNc3ccc(S(F)(F)(F)(F)F)cc3)cc2o1` [Example 99], the “% change@TL7@10 uM” value was found to be 157%. For `CCc1ccc(NCc2ccc3cc(C(=O)O)oc3c2)cc1C(F)(F)F` [Example 100] the value was 156%; for `O=C(O)c1cc2ccc(CNc3ccc(C(F)(F)F)c(C(F)(F)F)c3)cc2o1` [Example 101], 156%. The value for `Cc1cc(NCc2ccc3cc(C(=O)O)oc3c2)ccc1OC(F)(F)F` [Example 102] was 153%. As for `O=C(O)c1cc2ccc(CNc3ccc(C(=O)C(F)(F)F)cc3)cc2o1` [Example 103], the “% change@TL7@10 uM” value is given as 112%. For `O=C(O)c1cc2ccc(CNc3ccc(OC(F)(F)F)c(OC(F)(F)F)c3)cc2o1` [Example 104] the value was 111%; for `O=C(O)c1cc2ccc(CNc3ccc4c(c3)OCCO4)cc2o1` [Example 105], 105%; for `O=C(O)c1cc2ccc(CNc3cc(F)c(F)c(Br)c3)cc2o1` [Example 106], 90%. For `O=C(O)c1oc2cc(CNc3ccc(OC(F)(F)F)c(Br)c3)ccc2c1C(F)(F)F` [Example 107] the value was 85%; for `O=C(O)c1cc2ccc(CNc3ccc(OCC(F)(F)F)c(Cl)c3)cc2o1` [Example 108], 82%; for `O=C(O)c1cc2ccc(CNc3cccc(N4CCOCC4)c3)cc2o1` [Example 109], 81%. The value for `O=C(O)c1cc2ccc(CNc3cc(Cl)c(F)c(C(F)(F)F)c3)cc2o1` [Example 110] was 76%; that for `CCCc1ccc(NCc2ccc3c(C(F)(F)F)c(C(=O)O)oc3c2)cc1C(F)(F)F` [Example 111] was 65%. For `O=C(O)c1cc2ccc(CNc3ccc(C(F)(F)F)cn3)cc2o1` [Example 112], the “% change@TL7@10 uM” value is on record as 53%.

As for `O=C(O)c1cc2ccc(CNc3ccc(SC(F)(F)F)cc3)cc2o1` [Example 113], the “% change@TL7@10 uM” value stood at 53%. The value for `Cc1nc2cc(NCc3ccc4cc(C(=O)O)oc4c3)ccc2s1` [Example 114] was 45%. In the case of `COc1ccc(NCc2ccc3cc(C(=O)O)oc3c2)cc1Cl` [Example 115], the “% change@TL7@10 uM” value was found to be 41%. For `O=C(O)c1cc2ccc(CNc3cc(C(F)(F)F)cc(C(F)(F)F)c3)cc2o1` [Example 116], the “% change@TL7@10 uM” value turned out to be 31%. `COc1ccc(NCc2ccc3cc(C(=O)O)oc3c2)cc1C(F)(F)F` [Example 117]: the “% change@TL7@10 uM” value came to 28%. For `O=C(O)c1cc2ccc(CNc3ccc(OCC(F)(F)F)c(C(F)(F)F)c3)cc2o1` [Example 118] the value was 27%. The value for `O=C(O)c1cc2ccc(CNc3cc(Cl)nc(Cl)c3)cc2o1` [Example 119] was 22%; that for `O=C(O)c1cc2cc(CNc3cc(Cl)c(Cl)c(Cl)c3)ccc2o1` [Example 120] was 282%. The value for `CCCc1ccc(NCc2ccc3oc(C(=O)O)cc3c2)cc1Cl` [Example 121] was 210%. `CCCc1ccc(NCc2ccc3oc(C(=O)O)cc3c2)cc1C(F)(F)F` [Example 122]: the “% change@TL7@10 uM” value is reported as 184%.

For `O=C(O)c1cc2cc(CNc3ccc(Cl)c(Cl)c3)ccc2o1` [Example 123], the “% change@TL7@10 uM” value is on record as 183%. For `CCc1ccc(NCc2ccc3oc(C(=O)O)cc3c2)cc1C(F)(F)F` [Example 124] the value was 167%; for `CCCc1cc(NCc2ccc3oc(C(=O)O)cc3c2)ccc1C(F)(F)F` [Example 125], 138%. The value for `CCCc1cc(NCc2ccc3oc(C(=O)O)cc3c2)ccc1Cl` [Example 126] was 64%; that for `Fc1cc2oc(-c3nnn[nH]3)cc2cc1CNc1ccc(OCC(F)(F)F)c(C(F)(F)F)c1` [Example 127] was 268%. The value for `CCCc1ccc(NCc2cc3cc(-c4nnn[nH]4)oc3cc2F)cc1C(F)(F)F` [Example 128] was 142%. `Fc1cc2oc(-c3nnn[nH]3)cc2cc1CNc1ccc(Cl)c(Cl)c1` [Example 129]: the “% change@TL7@10 uM” value is on record as 154%.

Regarding `Fc1cc2oc(-c3nnn[nH]3)cc2cc1CNc1ccc(OC(F)(F)F)c(C(F)(F)F)c1` [Example 130], the “% change@TL7@10 uM” value is 220%. `Fc1cc2oc(-c3nnn[nH]3)cc2cc1CNc1cc(C(F)(F)F)c(Br)c(C(F)(F)F)c1` [Example 133]: the “% change@TL7@10 uM” value is listed as 326%. For `FC(F)Oc1ccc(NCc2cc3cc(-c4nnn[nH]4)oc3cc2Cl)cc1C(F)(F)F` [Example 134] the value was 217%; for `FC(F)(F)COc1ccc(NCc2cc3cc(-c4nnn[nH]4)oc3cc2Cl)cc1C(F)(F)F` [Example 135], 181%. For `FC(F)(F)c1cc(NCc2cc3cc(-c4nnn[nH]4)oc3cc2Cl)cc(C(F)(F)F)c1Br` [Example 137] the value was 166%.

In the case of `FC(F)(F)c1ccc(NCc2cc3cc(-c4nnn[nH]4)oc3cc2Cl)cc1Cl` [Example 138], the “% change@TL7@10 uM” value is recorded as 196%. The value for `Clc1ccc(NCc2cc3cc(-c4nnn[nH]4)oc3cc2Cl)cc1Cl` [Example 139] was 112%; that for `Fc1c(CNc2ccc(OC(F)(F)F)c(Br)c2)ccc2oc(-c3nnn[nH]3)cc12` [Example 140] was 290%.

For `Fc1c(CNc2ccc(OCC(F)(F)F)c(C(F)(F)F)c2)ccc2oc(-c3nnn[nH]3)cc12` [Example 142], the “% change@TL7@10 uM” value is recorded as 188%.

In the case of `Fc1c(CNc2cc(C(F)(F)F)c(Br)c(C(F)(F)F)c2)ccc2oc(-c3nnn[nH]3)cc12` [Example 143], the “% change@TL7@10 uM” value turned out to be 193%. In the case of `Fc1cc(CNc2ccc(OCC(F)(F)F)c(C(F)(F)F)c2)cc2cc(-c3nnn[nH]3)oc12` [Example 147], the “% change@TL7@10 uM” value is 151%.

Turning to `FC(F)(F)Oc1ccc(NCc2ccc3oc(-c4nn[nH]n4)cc3c2)cc1Br` [Example 149], the “% change@TL7@10 uM” value worked out at 335%. The value for `Fc1cc2cc(-c3nnn[nH]3)oc2cc1CNc1ccc(Cl)c(C(F)(F)F)c1` [Example 150] was 218%. For `Fc1c(CNc2cc(C(F)(F)F)c(Br)c(C(F)(F)F)c2)ccc2cc(-c3nnn[nH]3)oc12` [Example 151] the value was 308%; for `COc1cc2cc(-c3nnn[nH]3)oc2cc1CNc1ccc(OCC(F)(F)F)c(C(F)(F)F)c1` [Example 153], 381%; for `Fc1c(CNc2ccc(OCC(F)(F)F)c(C(F)(F)F)c2)ccc2cc(-c3nnn[nH]3)oc12` [Example 154], 325%.
